Reference: US5428059A, “Benzopyran derivatives and an anti-allergic agent possessing the same as the active ingredient” (Dainippon Ink & Chemicals, Inc., priority 1991, dated 1995)

What follows are compounds tested on Hartley-type male guinea pigs (assay: Guinea Pig Homogeneous Skin Passive Anaphylaxis Assay (PCA reaction)). Details: 10 mg/kg oral, 48 h after sensitization.
Format: in vivo, guinea pig (Hartley-type)
Summary of the method: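 Male Hartley guinea pigs (250~300 g) given intradermal back injections of 120-fold-diluted anti-OVA serum; 48 h later test substance dosed orally at 10 mg/kg, then challenged i.v. with OVA plus Evans Blue. Dye-spot area (long × short diameter, mm^2) measured at 30 min; inhibition % calculated against solvent control.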

**Q.** With `COc1cccc2c(OC(C)=O)c(OC(C)=O)c(=O)oc12` [Compound 113, 3,4-(diacetoxy)-8-(methoxy)-2H-1-benzopyran-2-one] as the compound, how does the “Allergic reaction inhibitory index (%)” value read?
**A.** 30%

**Q.** For `CC(=O)Oc1ccc2c(OC(C)=O)c(OC/C=C(\C)CCC=C(C)C)c(=O)oc2c1` [Compound 22, 3-(geranyloxy)-4,7-(diacetoxy)-2H-1-benzopyran-2-one], which “Allergic reaction inhibitory index (%)” value is on record?
**A.** 31%

Same assay, conditions: Cavia porcellus, 10 mg/kg oral, 48 h after sensitization, read-out: Allergic reaction inhibitory index (%)

**Q.** `CCCCCCCCCCOc1cccc2c(OC(=O)c3ccccc3)c(OC)c(=O)oc12` [Compound 150, 3-(methoxy)-4-(benzoyloxy)-8-(decyloxy)-2H-1-benzopyran-2-one] was tested. Which inhibition in vivo at 10 mg/kg did it give?
**A.** 34%

**Q.** How did the inhibition in vivo at 10 mg/kg turn out when `CCCCCCCCCCOc1ccc2oc(=O)c(OC)c(O)c2c1` [Compound 275, 3-(methoxy)-4-(hydroxy)-6-(decyloxy)-2H-1-benzopyran-2-one] was run?
**A.** 36%

**Q.** With `COc1ccc2c(O)c(OC(C)C)c(=O)oc2c1` [Compound 34, 3-(isopropoxy)-4-hydroxy-7-(methoxy)-2H-1-benzopyran-2-one] as the compound, how does the inhibition in vivo at 10 mg/kg read?
**A.** 39%

**Q.** Which inhibition in vivo at 10 mg/kg does the source give for `CCCCCCCCCCOc1ccc2oc(=O)c(OC(C)=O)c(O)c2c1` [Compound 279, 3-(acetoxy)-4-(hydroxy)-6-(decyloxy)-2H-1-benzopyran-2-one] here?
**A.** 30%

**Q.** Which inhibition in vivo at 10 mg/kg does the source give for `CCCCCCCCCCOc1c(OC)c(=O)oc2cccc(O)c12` [Compound 184, 3-(methoxy)-4-(decyloxy)-5-hydroxy-2H-1-benzopyran-2-one] here?
**A.** 33%

**Q.** For `CC(C)=CCC/C(C)=C/COc1cccc2c(O)c(OC(=O)c3ccccc3)c(=O)oc12` [Compound 158, 3-(benzoyloxy)-4-hydroxy-8-(geranyloxy)-2H-1-benzopyran-2-one], which inhibition in vivo at 10 mg/kg is on record?
**A.** 30%

**Q.** `CCCCCCCCCCOc1c(OC)c2cccc(OC)c2oc1=O` [Compound 117, 3-(decyloxy)-4,8-(dimethoxy)-2H-1-benzopyran-2-one] was tested. Which inhibition in vivo at 10 mg/kg did it give?
**A.** 32%

**Q.** With `CC(=O)Oc1c(O)c(=O)oc2cccc(OC(C)C)c12` [Compound 212, 3-hydroxy-4-(acetoxy)-5-(isopropoxy)-2H-1-benzopyran-2-one] as the compound, how does the inhibition in vivo at 10 mg/kg read?
**A.** 37%

**Q.** `COc1c(O)c2c(OC/C=C(\C)CCC=C(C)C)cccc2oc1=O` [Compound 248, 3-(methoxy)-4-hydroxy-5-(geranyloxy)-2H-1-benzopyran-2-one] was tested. Which inhibition in vivo at 10 mg/kg did it give?
**A.** 35%

**Q.** With `CC(=O)Oc1c(O)c2ccc(O)cc2oc1=O` [Compound 7, 3-(acetoxy)-4,7-(dihydroxy)-2H-1-benzopyran-2-one] as the compound, how does the inhibition in vivo at 10 mg/kg read?
**A.** 48%

**Q.** How did the inhibition in vivo at 10 mg/kg turn out when `CC(C)=CCC/C(C)=C/COc1ccc2c(OC/C=C(\C)CCC=C(C)C)c(OC(C)C)c(=O)oc2c1` [Compound 88, 3-(isopropoxy)-4,7-(digeranyloxy)-2H-1-benzopyran-2-one] was run?
**A.** 30%

**Q.** `CC(=O)Oc1c(OC/C=C(\C)CCC=C(C)C)c(=O)oc2cccc(O)c12` [Compound 189, 3-(geranyloxy)-4-(acetoxy)-5-hydroxy-2H-1-benzopyran-2-one] was tested. Which inhibition in vivo at 10 mg/kg did it give?
**A.** 30%

**Q.** For `COc1c(O)c2cc(O)ccc2oc1=O` [Compound 265, 3-(methoxy)-4,6-(dihydroxy)-2H-1-benzopyran-2-one], which inhibition in vivo at 10 mg/kg is on record?
**A.** 37%

**Q.** For `CCCCCCCCCCOc1c(O)c2cc(O)ccc2oc1=O` [Compound 266, 3-(decyloxy)-4,6-(dihydroxy)-2H-1-benzopyran-2-one], which inhibition in vivo at 10 mg/kg is on record?
**A.** 33%

**Q.** For `CC(C)=CCC/C(C)=C/COc1c(O)c(=O)oc2c(OC(C)C)cccc12` [Compound 139, 3-hydroxy-4-(geranyloxy)-8-(isopropoxy)-2H-1-benzopyran-2-one], which inhibition in vivo at 10 mg/kg is on record?
**A.** 33%

**Q.** `COc1cccc2oc(=O)c(O)c(O)c12` [Compound 195, 3,4-(dihydroxy)-5-(methoxy)-2H-1-benzopyran-2-one] was tested. Which inhibition in vivo at 10 mg/kg did it give?
**A.** 55%

**Q.** With `COc1ccc2c(OC/C=C(\C)CCC=C(C)C)c(OC)c(=O)oc2c1` [Compound 42, 3,7-(dimethoxy)-4-(geranyloxy)-2H-1-benzopyran-2-one] as the compound, how does the inhibition in vivo at 10 mg/kg read?
**A.** 33%

**Q.** Which inhibition in vivo at 10 mg/kg does the source give for `CCCCCCCCCCOc1cccc2c(OC(C)C)c(OC(C)=O)c(=O)oc12` [Compound 149, 3-(acetoxy)-4-(isopropoxy)-8-(decyloxy)-2H-1-benzopyran-2-one] here?
**A.** 33%

**Q.** With `COc1c(OC(C)C)c2c(OC)cccc2oc1=O` [Compound 200, 3,5-(dimethoxy)-4-(isopropoxy)-2H-1-benzopyran-2-one] as the compound, how does the inhibition in vivo at 10 mg/kg read?
**A.** 30%

**Q.** How did the inhibition in vivo at 10 mg/kg turn out when `CCCCCCCCCCOc1cccc2oc(=O)c(OC(C)C)c(O)c12` [Compound 233, 3-(isopropoxy)-4-hydroxy-5-(decyloxy)-2H-1-benzopyran-2-one] was run?
**A.** 39%

**Q.** `COc1c(OC/C=C(\C)CCC=C(C)C)c(=O)oc2cccc(O)c12` [Compound 191, 3-(geranyloxy)-4-(methoxy)-5-hydroxy-2H-1-benzopyran-2-one] was tested. Which inhibition in vivo at 10 mg/kg did it give?
**A.** 30%

**Q.** `CC(C)=CCC/C(C)=C/COc1ccc2c(O)c(O)c(=O)oc2c1` [Compound 75, 3,4-(hydroxy)-7-(geranyloxy)-2H-1-benzopyran-2-one] was tested. Which inhibition in vivo at 10 mg/kg did it give?
**A.** 45%

**Q.** With `CC(C)=CCC/C(C)=C/COc1c(OC(C)C)c(=O)oc2cccc(O)c12` [Compound 192, 3-(isopropoxy)-4-(geranyloxy)-5-hydroxy-2H-1-benzopyran-2-one] as the compound, how does the inhibition in vivo at 10 mg/kg read?
**A.** 37%

**Q.** How did the inhibition in vivo at 10 mg/kg turn out when `CC(C)=CCC/C(C)=C/COc1cccc2oc(=O)c(OC(=O)c3ccccc3)c(O)c12` [Compound 244, 3-(benzoyloxy)-4-hydroxy-5-(geranyloxy)-2H-1-benzopyran-2-one] was run?
**A.** 33%

**Q.** `CC(=O)Oc1c(OC(C)C)c2c(O)cccc2oc1=O` [Compound 185, 3-(acetoxy)-4-(isopropoxy)-5-hydroxy-2H-1-benzopyran-2-one] was tested. Which inhibition in vivo at 10 mg/kg did it give?
**A.** 30%

**Q.** How did the inhibition in vivo at 10 mg/kg turn out when `COc1cccc2oc(=O)c(OC(C)=O)c(OC/C=C(\C)CCC=C(C)C)c12` [Compound 206, 3-(acetoxy)-4-(geranyloxy)-5-(methoxy)-2H-1-benzopyran-2-one] was run?
**A.** 32%

**Q.** How did the inhibition in vivo at 10 mg/kg turn out when `CC(=O)Oc1c(OC(=O)c2ccccc2)c2ccc(O)cc2oc1=O` [Compound 10, 3-(acetoxy)-4-(benzoyloxy)-7-hydroxy-2H-1-benzopyran-2-one] was run?
**A.** 30%

**Q.** Which inhibition in vivo at 10 mg/kg does the source give for `CCCCCCCCCCOc1ccc2c(OC(C)C)c(O)c(=O)oc2c1` [Compound 63, 3-hydroxy-4-(isopropoxy)-7-(decyloxy)-2H-1-benzopyran-2-one] here?
**A.** 37%

**Q.** `CCCCCCCCCCOc1c(OC(C)C)c2c(OC/C=C(\C)CCC=C(C)C)cccc2oc1=O` [Compound 250, 3-(decyloxy)-4-(isopropoxy)-5-(geranyloxy)-2H-1-benzopyran-2-one] was tested. Which inhibition in vivo at 10 mg/kg did it give?
**A.** 31%

**Q.** `CC(C)=CCC/C(C)=C/COc1c(OC/C=C(\C)CCC=C(C)C)c2ccc(OC(C)C)cc2oc1=O` [Compound 57, 3,4-(digeranyloxy)-7-(isopropoxy)-2H-1-benzopyran-2-one] was tested. Which inhibition in vivo at 10 mg/kg did it give?
**A.** 30%

**Q.** For `CCCCOc1cccc2oc(=O)c(OC(=O)c3ccccc3)c(OC)c12` [Compound 228, 3-(benzoyloxy)-4-(methoxy)-5-(butoxy)-2H-1-benzopyran-2-one], which inhibition in vivo at 10 mg/kg is on record?
**A.** 34%

**Q.** How did the inhibition in vivo at 10 mg/kg turn out when `CC(C)=CCC/C(C)=C/COc1c(O)c2ccc(O)cc2oc1=O` [Compound 19, 3-(geranyloxy)-4,7-(dihydroxy)-2H-1-benzopyran-2-one] was run?
**A.** 42%

**Q.** How did the inhibition in vivo at 10 mg/kg turn out when `CC(C)=CCC/C(C)=C/COc1c(OC(C)C)c(=O)oc2c(O)cccc12` [Compound 108, 3-(isopropoxy)-4-(geranyloxy)-8-hydroxy-2H-1-benzopyran-2-one] was run?
**A.** 32%

**Q.** `CC(=O)Oc1c(OC(C)=O)c2c(OC(C)=O)cccc2oc1=O` [Compound 179, 3,4,5-(triacetoxy)-2H-1-benzopyran-2-one] was tested. Which inhibition in vivo at 10 mg/kg did it give?
**A.** 32%

**Q.** How did the inhibition in vivo at 10 mg/kg turn out when `COc1c(O)c(=O)oc2cc(OC(C)C)ccc12` [Compound 49, 3-hydroxy-4-(methoxy)-7-(isopropoxy)-2H-1-benzopyran-2-one] was run?
**A.** 36%

**Q.** `COc1c(OC)c2ccc(O)cc2oc1=O` [Compound 17, 3,4-(dimethoxy)-7-hydroxy-2H-1-benzopyran-2-one] was tested. Which inhibition in vivo at 10 mg/kg did it give?
**A.** 31%

**Q.** How did the inhibition in vivo at 10 mg/kg turn out when `CC(C)=CCC/C(C)=C/COc1cccc2oc(=O)c(O)c(O)c12` [Compound 245, 3,4-(dihydroxy)-5-(geranyloxy)-2H-1-benzopyran-2-one] was run?
**A.** 37%

**Q.** For `CC(C)=CCC/C(C)=C/COc1c(OC/C=C(\C)CCC=C(C)C)c2cccc(O)c2oc1=O` [Compound 109, 3,4-(digeranyloxy)-8-hydroxy-2H-1-benzopyran-2-one], which inhibition in vivo at 10 mg/kg is on record?
**A.** 34%

**Q.** Which inhibition in vivo at 10 mg/kg does the source give for `COc1cccc2c(OC(C)C)c(O)c(=O)oc12` [Compound 116, 3-hydroxy-4-(isopropoxy)-8-(methoxy).2H-1-benzopyran-2-one] here?
**A.** 34%

**Q.** How did the inhibition in vivo at 10 mg/kg turn out when `CC(C)=CCC/C(C)=C/COc1ccc2c(O)c(OC/C=C(\C)CCC=C(C)C)c(=O)oc2c1` [Compound 83, 3,7-(digeranyloxy)-4-hydroxy-2H-1-benzopyran-2-one] was run?
**A.** 34%

**Q.** Which inhibition in vivo at 10 mg/kg does the source give for `CCCCCCCCCCOc1ccc2oc(=O)c(O)c(O)c2c1` [Compound 273, 3,4-(dihydroxy)-6-(decyloxy)-2H-1-benzopyran-2-one] here?
**A.** 30%

**Q.** `COc1c(OC/C=C(\C)CCC=C(C)C)c2c(OC)cccc2oc1=O` [Compound 208, 3,5-(dimethoxy)-4-(geranyloxy)-2H-1-benzopyran-2-one] was tested. Which inhibition in vivo at 10 mg/kg did it give?
**A.** 32%

**Q.** How did the inhibition in vivo at 10 mg/kg turn out when `CC(=O)Oc1cccc2oc(=O)c(OC(=O)c3ccccc3)c(OC(C)=O)c12` [Compound 181, 3-(benzoyloxy)-4,5-(diacetoxy)-2H-1-benzopyran-2-one] was run?
**A.** 33%

**Q.** Which inhibition in vivo at 10 mg/kg does the source give for `COc1ccc2c(O)c(OC(C)=O)c(=O)oc2c1` [Compound 29, 3-(acetoxy)-4-hydroxy-7-(methoxy)-2H-1-benzopyran-2-one] here?
**A.** 46%

**Q.** With `COc1ccc2c(OC(=O)c3ccccc3)c(OC/C=C(\C)CCC=C(C)C)c(=O)oc2c1` [Compound 39, 3-(geranyloxy)-4-(benzoyloxy)-7-(methoxy)-2H-1-benzopyran-2-one] as the compound, how does the inhibition in vivo at 10 mg/kg read?
**A.** 30%
